EP0048168A2, “7-Acylamino cephalosporin compounds, their preparation and pharmaceutical formulations containing them” (ELI LILLY AND COMPANY, priority 1980, dated 1982)
In brackets after ≈: the same amount, converted by molar mass. Read-outs that look alike come from different tables or passages of the source.

Legend:
Assay in all cases: In vitro antibacterial activity, agar dilution technique using serial dilution
Format in all cases: cell-based
[1] = test system: Bordetella bronchoseptica; conditions: Bordetella bronchoseptica strain 16; read-out: Minimum Inhibitory Concentration
Experimental: (§1) The antibacterial activity of the compounds of the invention is illustrated by the in vitro activity of a preferred compound, 7β-[α-methoxyimino-α-(2-amino-1,3-thiazol-4-yl)acetamido]-3-(1-cyanomethyl-1H-tetrazol-5-ylthiomethyl)-3-cephem-4-carboxylic acid, against a wide spectrum of microorganisms. The activity was determined by the agar dilution technique using serial dilution.

Citrobacter freundii = Citrobacter freundii strain CF17; read-out: Minimum Inhibitory Concentration
Experimental: as §1

Enterobacter aerogenes = conditions: Klebsiella aerogenes, read-out: Minimum Inhibitory Concentration
Experimental: as §1

Enterobacter cloacae = test system: Enterobacter cloacae
Experimental: as §1

Escherichia coli = test system: Escherichia coli
Experimental: as §1

Haemophilus influenzae = conditions: read-out: Minimum Inhibitory Concentration
Experimental: as §1

Klebsiella sp. = Klebsiella sp. strain KAE; read-out: Minimum Inhibitory Concentration
Experimental: as §1

Proteus inconstans = conditions: Providencia alcalifaciens; Proteus inconstans strain PR33; read-out: Minimum Inhibitory Concentration
Experimental: as §1

Proteus morganii = conditions: Morganella morganii; Proteus morganii strain PR15; read-out: Minimum Inhibitory Concentration
Experimental: as §1

Proteus rettgeri = conditions: Providencia rettgeri
Experimental: as §1

Pseudomonas aeruginosa = test system: Pseudomonas aeruginosa
Experimental: as §1

Salmonella sp. = test system: Salmonella sp.
Experimental: as §1

Serratia marcescens = test system: Serratia marcescens
Experimental: as §1

Shigella sonnei = Shigella sonnei strain N9; read-out: Minimum Inhibitory Concentration
Experimental: as §1

Staphylococcus aureus = test system: Staphylococcus aureus
Experimental: as §1

[2] = test system: Staphylococcus epidermidis
Experimental: as §1

Streptococcus Group A = Streptococcus Group A strain C203; read-out: Minimum Inhibitory Concentration
Experimental: as §1

Streptococcus Group D = conditions: read-out: Minimum Inhibitory Concentration
Experimental: as §1

Streptococcus pneumoniae = Streptococcus pneumoniae strain Park; read-out: Minimum Inhibitory Concentration
Experimental: as §1

CO/N=C(\C(=O)N[C@@H]1C(=O)N2C(C(=O)O)=C(CSc3nnnn3CC#N)CS[C@H]12)c1csc(N)n1 [syn 7β-[α-Methoximino-α-(2-amino-1,3-thiazol-4-yl)-acetamido]-3-(1-cyanomethyl-1H-tetrazol-5-ylthiomethyl)-3-cephem-4-carboxylic acid]
MIC [1]: 64 µg/mL (≈ 119 µM)
MIC (Citrobacter freundii): 8 µg/mL (≈ 14.9 µM)
MIC (Enterobacter aerogenes; Enterobacter aerogenes strain EB17): 0.25 µg/mL (≈ 0.466 µM)
MIC (Enterobacter aerogenes; Enterobacter aerogenes strain X68): 0.06 µg/mL (≈ 0.112 µM)
MIC (Enterobacter aerogenes): 0.125 µg/mL (≈ 0.233 µM)
MIC (Enterobacter cloacae; Enterobacter cloacae strain 265A, read-out: Minimum Inhibitory Concentration): 32 µg/mL (≈ 59.6 µM)
MIC (Enterobacter cloacae; Enterobacter cloacae strain EB5, read-out: Minimum Inhibitory Concentration): 1 µg/mL (≈ 1.86 µM)
MIC (Escherichia coli; Escherichia coli strain EC14, read-out: Minimum Inhibitory Concentration): 0.06 µg/mL (≈ 0.112 µM)
MIC (Escherichia coli; Escherichia coli strain N10, read-out: Minimum Inhibitory Concentration): 0.25 µg/mL (≈ 0.466 µM)
MIC (Escherichia coli; Escherichia coli strain TEM, read-out: Minimum Inhibitory Concentration): 0.06 µg/mL (≈ 0.112 µM)
MIC (Haemophilus influenzae; Haemophilus influenzae strain 76, resistant strain of H. influenzae): 0.015 µg/mL (≈ 0.028 µM)
MIC (Haemophilus influenzae; Haemophilus influenzae strain C.L., sensitive strain of H. influenzae): 0.03 µg/mL (≈ 0.0559 µM)
MIC (Klebsiella sp.): 2 µg/mL (≈ 3.73 µM)
MIC (Proteus inconstans): 0.125 µg/mL (≈ 0.233 µM)
MIC (Proteus morganii): 0.06 µg/mL (≈ 0.112 µM)
MIC (Proteus rettgeri; read-out: Minimum Inhibitory Concentration, Proteus rettgeri strain C24): 0.125 µg/mL (≈ 0.233 µM)
MIC (Proteus rettgeri; Proteus rettgeri strain PR7, read-out: Minimum Inhibitory Concentration): 0.06 µg/mL (≈ 0.112 µM)
MIC (Pseudomonas aeruginosa; Pseudomonas aeruginosa strain Ps18, read-out: Minimum Inhibitory Concentration): 32 µg/mL (≈ 59.6 µM)
MIC (Pseudomonas aeruginosa; Pseudomonas aeruginosa strain X239, read-out: Minimum Inhibitory Concentration): 16 µg/mL (≈ 29.8 µM)
MIC (Pseudomonas aeruginosa; Pseudomonas aeruginosa strain X528, read-out: Minimum Inhibitory Concentration): 16 µg/mL (≈ 29.8 µM)
MIC (Salmonella sp.; Salmonella sp. strain 1335, read-out: Minimum Inhibitory Concentration): 0.5 µg/mL (≈ 0.932 µM)
MIC (Salmonella sp.; Salmonella sp. strain X514, read-out: Minimum Inhibitory Concentration): 0.125 µg/mL (≈ 0.233 µM)
MIC (Serratia marcescens; Serratia marcescens strain 3E3, read-out: Minimum Inhibitory Concentration): 0.25 µg/mL (≈ 0.466 µM)
MIC (Serratia marcescens; Serratia marcescens, read-out: Minimum Inhibitory Concentration, Serratia marcescens strain X93): 0.125 µg/mL (≈ 0.233 µM)
MIC (Shigella sonnei): 0.125 µg/mL (≈ 0.233 µM)
MIC (Staphylococcus aureus; Staphylococcus aureus strain V41, read-out: Minimum Inhibitory Concentration): 4 µg/mL (≈ 7.45 µM)
MIC (Staphylococcus aureus; Staphylococcus aureus strain X1.1, read-out: Minimum Inhibitory Concentration): 1 µg/mL (≈ 1.86 µM)
MIC (Staphylococcus aureus; Staphylococcus aureus strain X400, read-out: Minimum Inhibitory Concentration): 32 µg/mL (≈ 59.6 µM)
MIC (Staphylococcus aureus; read-out: Minimum Inhibitory Concentration): 8 µg/mL (≈ 14.9 µM)
MIC ([2]; Staphylococcus epidermidis strain EPI1, read-out: Minimum Inhibitory Concentration): 4 µg/mL (≈ 7.45 µM)
MIC ([2]; Staphylococcus epidermidis strain EPI2, read-out: Minimum Inhibitory Concentration): 8 µg/mL (≈ 14.9 µM)
MIC (Streptococcus Group A): 0.015 µg/mL (≈ 0.028 µM)
MIC (Streptococcus Group D; Streptococcus Group D strain 9960): 128 µg/mL (≈ 239 µM)
MIC (Streptococcus Group D; Streptococcus Group D strain X66): > 128 µg/mL
MIC (Streptococcus pneumoniae): 0.03 µg/mL (≈ 0.0559 µM)
